Laboratory results reported in US9079866B2, “Flap modulators” (JANSSEN PHARMACEUTICA NV, priority 2013, dated 2015).
Where a name gives a salt, the structure may show the parent alone. Read-outs that look alike come from different tables or passages of the source.

What was measured:
human FLAP = human FLAP (Homo sapiens (Human), UniProt P20292); test: FLAP binding assay (HTRF format)
Outline: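 Reported data take the mean of two different plates carrying duplicate samples and use the HTRF ratio as the measured signal.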

[1] = tested on: leukotriene pathway in human whole blood (LTB4 levels); test: Human whole blood assay (A23187-stimulated LTB4); format: cell-based; conditions: Homo sapiens, read-out: LTB4 IC50 1:1
Outline: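 Heparinised human whole blood diluted 1:1 in RPMI, pre-incubated 15 min at 37° Celsius with compound, then stimulated with A23187 (7 μg/mL) for 30 min at 37° Celsius. Plasma LTB4 measured by immunoassay kit; IC50 from 4-parameter fit; single replicate per plate, at least one healthy donor.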

[2] = human FLAP wild type, HTRF format, average of two plates, duplicates
[3] = human whole blood diluted 1:1 in RPMI, A23187-stimulated LTB4
[4] = human whole blood diluted 1:1, A23187-stimulated
[5] = read-out: FLAP Binding wild type HTRF Ki

human FLAP, sequence (P20292 whole entry): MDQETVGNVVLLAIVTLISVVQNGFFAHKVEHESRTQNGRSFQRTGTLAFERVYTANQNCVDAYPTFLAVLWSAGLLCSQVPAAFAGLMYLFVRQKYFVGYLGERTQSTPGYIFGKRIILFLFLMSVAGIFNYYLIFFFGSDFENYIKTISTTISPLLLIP

Row | SMILES | Ki (human FLAP; [2]) | IC50 [1, 3] | IC50 [1, 4] | further results
1 | Nc1cnc(-c2ccc(-c3ccccc3S(=O)(=O)N3C[C@H](O)[C@@H](O)C3)cc2F)cn1 (relative stereo) [Example 106, (trans)-1-{[4′-(5-Aminopyrazin-2-yl)-3′-fluorobiphenyl-2-yl]sulfonyl}pyrrolidine-3,4-diol] | 19 nM | > 1000 nM |  | 
2 | CC(C)(C)NS(=O)(=O)c1ccccc1-c1ccc(-c2ccc3scnc3c2)c(F)c1 [Example 424, 4′-(1,3-Benzothiazol-5-yl)-N-tert-butyl-3′-fluorobiphenyl-2-sulfonamide] |  |  | > 10000 nM | Ki (human FLAP; wild type FLAP, HTRF format): 10 nM
3 | Nc1cnc(-c2ccc(-c3ccccc3S(=O)(=O)N3CCOC(CO)C3)cc2F)cn1 (racemic) [Example 142, racemic (4-{[4′-(5-Aminopyrazin-2-yl)-3′-fluorobiphenyl-2-yl]sulfonyl}morpholin-2-yl)methanol] | 15 nM | 41 nM |  | 
4 | CC(C)(C)NS(=O)(=O)c1ccccc1-c1ccc(-c2cnc3[nH]c(=O)[nH]c3n2)c(F)c1 [Example 429, N-tert-Butyl-3′-fluoro-4′-(2-oxo-2,3-dihydro-1H-imidazo[4,5-b]pyrazin-5-yl)biphenyl-2-sulfonamide] |  |  | 209 nM | Ki (human FLAP; wild type FLAP, HTRF format): 13 nM
5 | N#CC1CCN(S(=O)(=O)c2ccccc2-c2ccc(-c3cnc(N)cn3)c(F)c2)CC1 [Example 64, 1-{[4′-(5-Aminopyrazin-2-yl)-3′-fluorobiphenyl-2-yl]sulfonyl}piperidine-4-carbonitrile] | 2 nM | 6 nM |  | 
6 | Nc1cnc(-c2ccc(-c3ccccc3Sc3nccc(N)n3)cc2F)cn1 [Example 216, 2-{[4′-(5-Aminopyrazin-2-yl)-3′-fluorobiphenyl-2-yl]sulfanyl}pyrimidin-4-amine hydrochloride] |  | 16 nM |  | Ki (human FLAP; [5]): 2 nM
7 | CC(=O)N1CCN(S(=O)(=O)c2ccccc2-c2ccc(-c3cnc(N)cn3)c(F)c2)CC1 [Example 57, 5-{2′-[(4-Acetylpiperazin-1-yl)sulfonyl]-3-fluorobiphenyl-4-yl}pyrazin-2-amine] | 15 nM | 252 nM |  | 
8 | C[C@@H](CO)NC(=O)c1cc(C(F)(F)F)ccc1-c1ccc(-c2cnc(N)cn2)c(F)c1 [Example 786, 2-[4-(5-Aminopyrazin-2-yl)-3-fluoro-phenyl]-N-[(1S)-2-hydroxy-1-methyl-ethyl]-5-(trifluoromethyl)benzamide] |  |  | 105 nM | Ki (human FLAP; wild type FLAP, HTRF format): 60.7 nM
9 | CC(C)(NS(=O)(=O)c1ccccc1-c1ccc(-c2cnc(N)cn2)c(F)c1)C(F)(F)F [Example 13, 4′-(5-Aminopyrazin-2-yl)-3′-fluoro-N-(2,2,2-trifluoro-1,1-dimethylethyl)biphenyl-2-sulfonamide] |  | 18 nM |  | Ki (human FLAP; [5]): 1 nM
10 | Nc1ncc(-c2ccc(-c3cccnc3S(=O)(=O)C3CCOCC3)cc2F)cn1 [Example 831, 5-{2-Fluoro-4-[2-(tetrahydro-2H-pyran-4-ylsulfonyl)pyridin-3-yl]phenyl}pyrimidin-2-amine formic acid salt] |  |  | 79.2 nM | Ki (human FLAP; [5]): 131 nM
11 | Nc1cnc(-c2ccc(-c3ccccc3NS(=O)(=O)C3CC3)cc2F)cn1 [Example 38, N-(4′-(5-aminopyrazin-2-yl)-3′-fluoro-[1,1′-biphenyl]-2-yl)cyclopropanesulfonamide] | 33 nM | 177 nM |  | 
12 | Nc1cnc(-c2ccc(-c3ccccc3S(=O)(=O)NCC3CCC3)cc2F)cn1 [Example 9, 4′-(5-Aminopyrazin-2-yl)-N-(cyclobutylmethyl)-3′-fluorobiphenyl-2-sulfonamide] | 3 nM | 60 nM |  | 
13 | Cc1cc(C)nc(Oc2ccccc2-c2ccc(-c3cnc(N)cn3)c(F)c2)n1 [Example 608, 5-{2′-[(4,6-Dimethylpyrimidin-2-yl)oxy]-3-fluorobiphenyl-4-yl}pyrazin-2-amine] |  |  | 53.9 nM | Ki (human FLAP; wild type FLAP, HTRF format): 28.7 nM
14 | Nc1cnc(-c2ccc(-c3ccc(C(F)(F)F)cc3S(=O)(=O)N3CCNC(=O)C3)cc2F)cn1 [Example 209, 4-{[4′-(5-Aminopyrazin-2-yl)-3′-fluoro-4-(trifluoromethyl)biphenyl-2-yl]sulfonyl}piperazin-2-one] | 1 nM | 34 nM |  | 
15 | Nc1ncc(-c2ccc(-c3ccc(C(F)(F)F)cc3S(=O)(=O)N3CCNC(=O)C3)cc2F)cn1 [Example 324, 4-{[4′-(2-Aminopyrimidin-5-yl)-3′-fluoro-4-(trifluoromethyl)biphenyl-2-yl]sulfonyl}piperazin-2-one] | 19 nM | 101 nM |  | 
16 | C[Si](C)(C)CCOCSc1ccccc1-c1ccc(-c2cnc(N)cn2)c(F)c1 [Example 244, 5-[3-Fluoro-2′-({[2-(trimethylsilyl)ethoxy]methyl}sulfanyl)biphenyl-4-yl]pyrazin-2-amine] | 29 nM |  |  | IC50 [1]: 211 nM
17 | Nc1ncc(-c2ccc(-c3cccnc3S(=O)(=O)C3CC3)cc2F)cn1 [Example 828, 5-{4-[2-(Cyclopropylsulfonyl)pyridin-3-yl]-2-fluorophenyl}pyrimidin-2-amine formic acid salt] |  |  | 260 nM | Ki (human FLAP; [5]): 115 nM
18 | Nc1cnc(-c2ccc(-c3ccccc3S(=O)(=O)N[C@H]3c4ccccc4C[C@@H]3O)cc2F)cn1 [Example 158, 4′-(5-Aminopyrazin-2-yl)-3′-fluoro-N-((1S,2S)-2-hydroxy-2,3-dihydro-1H-inden-1-yl)-[1,1′-biphenyl]-2-sulfonamide] | 1 nM | 1 nM |  | 
19 | Nc1cnc(-c2ccc(-c3ccc(C(F)(F)F)cc3S(N)(=O)=O)cc2F)cn1 [Example 206, 4′-(5-Aminopyrazin-2-yl)-3′-fluoro-4-(trifluoromethyl)biphenyl-2-sulfonamide] | 2 nM | 43 nM |  | 
20 | Nc1cnc(-c2ccc(-c3ccc(OC(F)(F)F)cc3F)cc2F)cn1 [Example 467, 5-[2′,3-Difluoro-4′-(trifluoromethoxy)biphenyl-4-yl]pyrazin-2-amine] |  |  | 2830 nM | Ki (human FLAP; wild type FLAP, HTRF format): 250 nM
21 | Nc1cnc(-c2ccc(-c3ccccc3S(=O)(=O)N3C[C@@H]4C[C@H]3CN4)cc2F)cn1 [Example 131, 5-(2′-((1S,4S)-2,5-Diazabicyclo[2.2.1]heptan-2-ylsulfonyl)-3-fluoro-[1,1′-biphenyl]-4-yl)pyrazin-2-amine] | 144 nM | 695 nM |  | 
22 | CC(C)(C)OC(=O)NC1CCCN(S(=O)(=O)c2ccccc2-c2ccc(-c3cnc(N)cn3)c(F)c2)C1 (racemic) [Example 77, racemic tert-Butyl (1-{[4′-(5-aminopyrazin-2-yl)-3′-fluorobiphenyl-2-yl]sulfonyl}piperidin-3-yl)carbamate] | 3 nM | 342 nM |  | 
23 | C[C@H](NS(=O)(=O)c1ccccc1-c1ccc(-c2ccc(N)nc2)c(F)c1)C(F)(F)F [Example 355, (S)-4′-(6-Aminopyridin-3-yl)-3′-fluoro-N-(1,1,1-trifluoropropan-2-yl)-[1,1′-biphenyl]-2-sulfonamide] | 5 nM | 29 nM |  | 
24 | CC(C)Sc1ncccc1-c1ccc(-c2cnc(N)cn2)c(F)c1 [Example 396, 5-(2-Fluoro-4-{2-[(1-methylethyl)sulfanyl]pyridin-3-yl}phenyl)pyrazin-2-amine] |  |  | 137 nM | Ki (human FLAP; wild type FLAP, HTRF format): 8 nM
25 | COc1cnc(Oc2ccccc2-c2ccc(-c3cnc(N)nc3)c(F)c2)nc1 [Example 550, 5-{3-Fluoro-2′-[(5-methoxypyrimidin-2-yl)oxy]biphenyl-4-yl}pyrimidin-2-amine] |  |  | 16 nM | Ki (human FLAP; wild type FLAP, HTRF format): 2 nM
